ChEMBL document CHEMBL1122575, “Dependence of beta-lactamase stability on substructures within beta-lactam antibiotics” (J Med Chem, 1984)
≈ marks a conversion by molar mass, not a printed value.

What was measured:
[1] = tested on: Staphylococcus aureus; experiment: Compound was evaluated for the antibacterial activity against Staphylococcus aureus with strain beta-Lactamase-negative (LAC-); type: functional
[2] = tested on: Staphylococcus aureus; experiment: Relative hydrolysis rate (RHR) was evaluated against Staphylococcus aureus with strain PC1.; type: ADME, organism-based
[3] = tested on: Staphylococcus aureus; experiment: Compound was evaluated for the antibacterial activity against Staphylococcus aureus with strain beta-Lactamase-positive (LAC+); type: functional
[4] = tested on: Escherichia coli; experiment: Compound was evaluated for the antibacterial activity against Escherichia coli (RTEM+ organism).; type: functional
[5] = tested on: Escherichia coli; experiment: Compound was evaluated for the antibacterial activity against Escherichia coli with strain NIHJ (beta-Lactamase-negative (LAC-); type: functional
[6] = tested on: Escherichia coli; experiment: Compound was evaluated for the antibacterial activity against Escherichia coli (RTEM-organism) at 10e4/10e6 cfu; 1.6/1.6; type: functional
[7] = tested on: Escherichia coli; experiment: Compound was evaluated for the antibacterial activity against Escherichia coli (RTEM+organism) at 10e4/10e6 cfu; 0.8/3.1; type: functional
[8] = tested on: Escherichia coli; experiment: Compound was evaluated for the antibacterial activity against Escherichia coli with strain JC-S (beta-Lactamase-negative (LAC-)); type: functional
[9] = tested on: Enterobacter cloacae; experiment: Compound was evaluated for the antibacterial activity against Enterobacter cloacae with strain 233 (beta-Lactamase-positive (LAC+)); type: functional
[10] = tested on: Escherichia coli; experiment: Compound was evaluated for the relative Vmax against Escherichia coli with strain 609 (beta-Lactamase-positive (LAC+)); type: ADME, organism-based
[11] = tested on: Escherichia coli; experiment: Compound was evaluated for the antibacterial activity against Escherichia coli with strain 609 (beta-Lactamase-positive (LAC+)); type: functional
[12] = tested on: Escherichia coli; experiment: Compound was evaluated for the antibacterial activity against Escherichia coli with strain NIHJ (beta-Lactamase-negative (LAC-)); type: functional
[13] = Relative Vmax was reported; type: ADME
[14] = tested on: Providencia rettgeri; experiment: Compound was evaluated for the antibacterial activity against Providencia rettgeri with the strains beta-Lactamase-positive (LAC+); type: functional
[15] = tested on: Enterobacter cloacae; experiment: Compound was evaluated for the antibacterial activity against Enterobacter cloacae with the strains beta-Lactamase-positive (LAC+); type: functional
[16] = tested on: Klebsiella aerogenes; experiment: Compound was evaluated for the antibacterial activity against Klebsiella aerogenes with strain K1; 100/>100; type: functional
[17] = tested on: Escherichia coli; experiment: Compound was evaluated for the antibacterial activity against Escherichia coli (RTEM- organism); 0.1/0.4; type: functional
[18] = tested on: Klebsiella aerogenes; experiment: Compound was evaluated for the antibacterial activity against Klebsiella aerogenes with strain K1-; 0.8/0.8; type: functional
[19] = tested on: Escherichia coli; experiment: cCompound was evaluated for the antibacterial activity against Escherichia coli (RTEM+ organism); 0.4/0.2; type: functional
[20] = tested on: Escherichia coli; experiment: Compound was evaluated for the antibacterial activity against Escherichia coli (RTEM+ organism); type: functional
[21] = tested on: Escherichia coli; experiment: Compound was evaluated for the antibacterial activity against Escherichia coli with strain beta-Lactamase-negative (LAC-); type: functional
[22] = Relative hydrolysis rate (RHR) was evaluated against RTEM enzyme; type: ADME
[23] = Relative hydrolysis rate (RHR) was evaluated against K1 enzyme; type: ADME
[24] = Compound was evaluated for the relative Vmax against RTEM enzyme; type: ADME
[25] = Compound was evaluated for the percentage remaining after 24 hr hydrolysis at a pH 7 at 37 degree Centigrade; conditions: buffer
[26] = tested on: Escherichia coli; experiment: Percentage zonal reduction was evaluated against Escherichia coli; type: functional
[27] = tested on: Staphylococcus aureus; experiment: Percentage zonal reduction was evaluated against Staphylococcus aureus; type: functional
[28] = tested on: Escherichia coli; experiment: Relative hydrolysis rate (RHR) was evaluated against Escherichia coli with the strain RTEM; type: ADME, organism-based
[29] = tested on: Providencia rettgeri; experiment: Compound was evaluated for the antibacterial activity against Providencia rettgeri with the strain beta-Lactamase-negative (LAC-); type: functional
[30] = tested on: Escherichia coli; experiment: Compound was evaluated for the antibacterial activity against Escherichia coli (RTEM+organism) at 10e4/10e6 cfu; 6.3/>100; type: functional
[31] = tested on: Klebsiella aerogenes; experiment: Compound was evaluated for the antibacterial activity against Klebsiella aerogenes with strain K1+ at 10e4/10e6 cfu; 100/>100; type: functional
[32] = tested on: Escherichia coli; experiment: Compound was evaluated for the antibacterial activity against Escherichia coli (RTEM-organism) at 10e4/10e6 cfu; 0.4/1.6; type: functional
[33] = tested on: Klebsiella aerogenes; experiment: Compound was evaluated for the antibacterial activity against Klebsiella aerogenes with strain K1- at 10e4/10e6 cfu; 0.4/1.6; type: functional
[34] = tested on: Escherichia coli; experiment: Compound was evaluated for the antibacterial activity against Escherichia coli (RTEM+organism) at 10e4/10e6 cfu; 0.1/0.4; type: functional
[35] = tested on: Escherichia coli; experiment: Compound was evaluated for the antibacterial activity against Escherichia coli (RTEM-organism) at 10e4/10e6 cfu; 0.2/0.4; type: functional
[36] = tested on: Klebsiella aerogenes; experiment: Compound was evaluated for the antibacterial activity against Klebsiella aerogenes with strain K1+ at 10e4/10e6 cfu; 0.2/0.8; type: functional
[37] = tested on: Klebsiella aerogenes; experiment: Compound was evaluated for the antibacterial activity against Klebsiella aerogenes with strain K1- at 10e4/10e6 cfu; 0.1/0.4; type: functional

**Q.** For `C[C@H]1[C@H](NC(=O)CSc2cc(Cl)nc(Cl)c2)C(=O)N1OS(=O)(=O)[O-].[K+]`, which MIC [1] is on record?
**A.** 0.2 µg/mL

**Q.** And the RHR [2]?
**A.** 2.6

**Q.** And the MIC [3]?
**A.** 6.3 µg/mL

**Q.** With `CCO[C@@]1(NC(=O)CSCC#N)C(=O)N2C(C(=O)O)=C(CSc3nnnn3C)CSC21` (stereo not given in full) as the molecule, how does the MIC [4] read?
**A.** 50 µg/mL (≈ 103 µM)

**Q.** What about the MIC [5] of the same molecule?
**A.** 50 µg/mL (≈ 103 µM)

**Q.** What does the source list for `CC(C)(O/N=C(/C(=O)N[C@H]1CN(C(=O)NS(C)(=O)=O)C1=O)c1csc(N)n1)C(=O)[O-].[K+]`?
**A.** MIC [6]: 1.6 µg/mL; MIC [7]: 0.8 µg/mL

**Q.** For `Cn1nnnc1SCC1=C(C(=O)O)N2C(=O)[C@@H](NC(=O)Cc3ccc(O)cc3)C2OC1` (stereo not given in full), which MIC [8] is on record?
**A.** 0.8 µg/mL (≈ 1.79 µM)

**Q.** And the MIC [9]?
**A.** > 100 µg/mL

**Q.** And the MIC [4]?
**A.** > 100 µg/mL

**Q.** For `NCCSC1=C(C(=O)O)N2C(=O)[C@H](CO)C2S1` (stereo not given in full), which RVmax [10] is on record?
**A.** < 0.1

**Q.** What about the MIC [11] of the same molecule?
**A.** 3.1 µg/mL (≈ 11.2 µM)

**Q.** What about the MIC [12] of the same molecule?
**A.** 1.5 µg/mL (≈ 5.43 µM)

**Q.** Which RVmax [13] does the source give for `CC1(C)SC2[C@H](NC(=O)c3ccccc3)C(=O)N2C1C(=O)O` (stereo not given in full) here?
**A.** 2

**Q.** Which MIC [14] does the source give for `Cn1nnnc1SCC1=C(C(=O)[O-])N2C(=O)[C@@H](NC(=O)[C@@H](NC(N)=O)c3ccco3)C2SC1.[Na+]` (stereo not given in full) here?
**A.** 0.4 µg/mL

**Q.** And the MIC [15]?
**A.** 0.6 µg/mL

**Q.** With `C#C[C@@H]1[C@H](NC(=O)/C(=N/OC)c2csc(N)n2)C(=O)N1S(=O)(=O)[O-].[K+]` as the molecule, how does the MIC [16] read?
**A.** > 100 µg/mL

**Q.** What about the MIC [17] of the same molecule?
**A.** 0.1 µg/mL

**Q.** And the MIC [18]?
**A.** 0.8 µg/mL

**Q.** And the MIC [19]?
**A.** 0.4 µg/mL

**Q.** Which results are given for `CC(=O)NCCSC1=C(C(=O)O)N2C(=O)[C@@H](C(C)OS(=O)(=O)[O-])C2C1.[K+]` (stereo not given in full)?
**A.** MIC [20]: 1.6 µg/mL; MIC [21]: 0.2 µg/mL

**Q.** What does the source list for `CO/N=C(\C(=O)N[C@@H]1C(=O)N2C(C(=O)O)=C(COC(C)=O)CS[C@H]12)c1csc(N)n1` [CEFOTAXIME]?
**A.** RHR [22]: 100; RHR [23]: 100

**Q.** What does the source list for `CC(=O)N[C@H]1CN(S(=O)(=O)[O-])C1=O.[K+]`?
**A.** RVmax [24]: 12; remaining at 24 h [25]: > 80%

**Q.** With `Cn1nnnc1SCC1=C(C(=O)O)N2C(=O)C(NC(=O)C(C(=O)O)c3ccc(O)cc3)C2OC1` (stereo not given) as the molecule, how does the RHR [22] read?
**A.** 19

**Q.** What about the MIC [12] of the same molecule?
**A.** 0.2 µg/mL (≈ 0.408 µM)

**Q.** Which Zone reduction [26] does the source give for `CC1=C(C(=O)O)N2C(=O)[C@@H](NC(=O)[C@@H](N)C3=CCC=CC3)C2SC1` (stereo not given in full) here?
**A.** 12%

**Q.** What about the Zone reduction [27] of the same molecule?
**A.** 25%

**Q.** What does the source list for `CO[C@]1(NC(C)=O)CN(S(=O)(=O)[O-])C1=O.[K+]`?
**A.** RVmax [24]: < 0.01; remaining at 24 h [25]: < 1%

**Q.** Which MIC [20] does the source give for `CC(=O)NCCSC1=C(C(=O)O)N2C(=O)[C@H]([C@H](C)O)C2C1` (stereo not given in full) here?
**A.** 0.8 µg/mL (≈ 2.54 µM)

**Q.** What about the MIC [21] of the same molecule?
**A.** 0.8 µg/mL (≈ 2.54 µM)

**Q.** Which RVmax [10] does the source give for `CC(O)[C@@H]1C(=O)N2C(C(=O)O)=C(SCCN)SC12` (stereo not given in full) here?
**A.** < 0.1

**Q.** What about the MIC [11] of the same molecule?
**A.** 25 µg/mL (≈ 86.1 µM)

**Q.** And the MIC [12]?
**A.** 12.5 µg/mL (≈ 43 µM)

**Q.** With `CO[C@@]1(NC(=O)CSCC#N)C(=O)N2C(C(=O)[O-])=C(CSc3nnnn3C)CS[C@@H]21.[Na+]` [CEFMETAZOLE SODIUM] as the molecule, how does the MIC [4] read?
**A.** 0.8 µg/mL

**Q.** And the MIC [5]?
**A.** 0.8 µg/mL

**Q.** What does the source list for `CC1[C@H](NC(=O)CSc2cc(Cl)nc(Cl)c2)C(=O)N1OS(=O)(=O)O` (single isomer, unassigned)?
**A.** MIC [1]: 0.1 µg/mL (≈ 0.24 µM); RHR [2]: 1; MIC [3]: 1.6 µg/mL (≈ 3.84 µM)

**Q.** What does the source list for `CO[C@@]1(NC(=O)Cc2ccc(O)cc2)C(=O)N2C(C(=O)O)=C(CSc3nnnn3C)COC21` (stereo not given in full)?
**A.** MIC [8]: 0.1 µg/mL (≈ 0.21 µM); MIC [9]: 100 µg/mL (≈ 210 µM); MIC [4]: 0.8 µg/mL (≈ 1.68 µM)

**Q.** Which RHR [28] does the source give for `CO/N=C(\C(=O)NC1CN(S(=O)(=O)[O-])C1=O)c1csc(N)n1.[K+]` (stereo not given) here?
**A.** < 0.02

**Q.** And the MIC [29]?
**A.** > 100 µg/mL

**Q.** Which RVmax [10] does the source give for `NCCSC1=C(C(=O)O)N2C(=O)CC2S1` (stereo not given) here?
**A.** 75

**Q.** And the MIC [11]?
**A.** 50 µg/mL (≈ 203 µM)

**Q.** What about the MIC [12] of the same molecule?
**A.** 0.8 µg/mL (≈ 3.25 µM)

**Q.** Which results are given for `CO/N=C(/C(=O)N[C@H]1CN(S(=O)(=O)[O-])C1=O)c1csc(N)n1.[K+]`?
**A.** RHR [22]: 12; RHR [23]: 106; MIC [30]: 6.3 µg/mL; MIC [31]: 100 µg/mL; MIC [32]: 0.4 µg/mL; MIC [33]: 0.4 µg/mL

**Q.** Which MIC [34] does the source give for `CC[C@@H]1[C@H](NC(=O)/C(=N/OC)c2csc(N)n2)C(=O)N1S(=O)(=O)[O-].[K+]` here?
**A.** 0.1 µg/mL

**Q.** And the MIC [35]?
**A.** 0.2 µg/mL

**Q.** What about the MIC [36] of the same molecule?
**A.** 0.2 µg/mL

**Q.** What about the MIC [37] of the same molecule?
**A.** 0.1 µg/mL
